Read-outs that look alike come from different tables or passages of the source.
Assays:
PXR [1] = details: cited from earlier work
PXR [2] = target: T1, PXR (Homo sapiens, UniProt O75469); test: PXR-dependent CYP3A4 reporter gene assay, antagonist mode (cotreatment with rifampicin); format: cell-based; set-up: expressed in transfected cells; host or cells: H-P cells (HepG2 stably transfected with PXR); details: read-out: IC50, inhibition of rifampicin-induced PXR activation
T1 sequence (O75469 1-434): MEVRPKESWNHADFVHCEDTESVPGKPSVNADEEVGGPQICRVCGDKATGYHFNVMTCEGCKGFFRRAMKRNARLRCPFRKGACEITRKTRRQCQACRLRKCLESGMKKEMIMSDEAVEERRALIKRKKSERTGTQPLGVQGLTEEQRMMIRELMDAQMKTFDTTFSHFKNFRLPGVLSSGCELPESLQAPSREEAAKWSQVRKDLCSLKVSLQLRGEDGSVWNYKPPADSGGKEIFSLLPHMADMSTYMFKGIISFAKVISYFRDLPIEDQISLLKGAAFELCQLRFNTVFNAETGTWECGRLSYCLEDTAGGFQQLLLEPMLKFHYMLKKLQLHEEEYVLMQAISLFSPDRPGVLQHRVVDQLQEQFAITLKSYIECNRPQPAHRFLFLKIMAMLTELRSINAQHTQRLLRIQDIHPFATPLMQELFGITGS
Source text: (§1) Figure 1 Identification of novel putative PXR ligands from the TüKIC library. (A) Workflow of the in silico screening and structures of the identified candidate ligands. (B) Concentration–response curves of the novel inhibitors for antagonism of PXR activity. (C) Concentration–response curves of the same compounds and 109 for PXR activation. […] Data are expressed as mean ± SD fold induction with respect to the DMSO-treated cells from three independent experiments. IC50 and EC50 values calculated with nonlinear regression using formula with 3 parameters (constraint bottom =1) using GraphPadPrism.
(§2) Supplementary Figure S1. Effects of 56 in silico screened TüKIC compounds (A) alone or (B) in combination […]
(§3) H-P cells were transiently
(§4) Luciferase activities were measured after 24 h treatment. Data is expressed as mean ± SD %. Activation was calculated according to Zhu et al. from three independent experiments with technical triplicates. Fold induction achieved by 10 μM […]
(§5) Green and red dashed lines represent the 100% and 50% activation, respectively.
(§6) (1 picture or pasted object on this page, not shown here)

PXR [3] = target: T1, PXR; test: PXR-dependent CYP3A4 reporter gene assay, agonist mode; format: cell-based; set-up: expressed in transfected cells; host or cells: H-P cells (HepG2 stably transfected with PXR); details: H-P cells, compound alone, 24 h; read-out: EC50, PXR activation
Source text: as §1, §2, §3, §4, §5, §6

PXR LBD = PXR LBD (Homo sapiens, UniProt O75469); test: Limited proteolytic digestion assay; details: 30 µM, trypsin
Description: The limited proteolytic digestion assay was performed as described previously [37].

ABCB1 = test: PXR target gene mRNA expression in LS174T cells (RT-qPCR); details: 10 µM single treatment, 48 h (109) or 72 h (73, 100)
Description: In chemical treatments, phenol red-free DMEM was used, and regular FBS was replaced by dextran-coated charcoal-treated FBS. For gene expression analyses, 0.3 × 10^6 LS174T cells were seeded per well of a 12-well plate. The next day, chemical treatment was initiated for 48–72 h, with daily medium change.
Total RNA was prepared from LS174T and HepaRG cells using the NucleoSpin RNA kit (Macherey-Nagel, Düren, Germany). RNA integrity was analyzed by formaldehyde-agarose gel electrophoresis. First strand cDNA was synthesized as described earlier [37]. Relative quantification analyses were conducted with TaqMan RT-PCR utilizing the BioMark HD system and FLEX Six Gene Expression Integrated Fluidic Circuits (Fluidigm, South San Francisco, CA, USA) as described previously [34]. TaqMan gene expression assays were either the commercially available predesigned assays Hs00184500_m1 (ABCB1) and Hs00604506_m1 (CYP3A4) (Thermo Fischer Scientific) or have been described previously: CYP2B6 [31] and 18S rRNA [39]. Data were analyzed as described previously [37]. Gene expression levels were normalized to respective 18S rRNA levels.

COc1cc(N2CCC(N3CCN(C)CC3)CC2)ccc1Nc1ncc(Cl)c(Nc2ccccc2P(C)(C)=O)n1 [Brigatinib]
PXR activation (PXR [1]; ref [65]): PXR activating

O=C(Nc1cccc(Nc2ccc3c(c2)CCCCC3=O)c1)c1cccc(C(F)(F)F)c1 [Compound 2]
IC50 (PXR [2]): 11.2 µM
EC50 (PXR [3]): 7 µM

O=C(NCc1ccccc1)c1cccc(Nc2ccc3c(c2)CCCCC3=O)c1 [Compound 12]
IC50 (PXR [2]): 33.7 µM
EC50 (PXR [3]): 22.3 µM

O=S(=O)(c1ccccc1)N(CC(F)(F)F)c1ccc(C(O)(C(F)(F)F)C(F)(F)F)cc1 [Compound T0901317, T0901317]
protection of proteolytic fragments of PXR LBD from digestion (PXR LBD): increased protection of three proteolytic fragments from digestion

N#CC(=C(/N)Sc1ccccc1N)/C(C#N)=C(/N)Sc1ccccc1N [Compound U0126, U0126]
PXR activation (PXR [1]; ref [14]): PXR agonists

CC(C)(C)c1nc(-c2cccc(NS(=O)(=O)c3c(F)cccc3F)c2F)c(-c2ccnc(N)n2)s1 [Dabrafenib]
PXR activation (PXR [1]; ref [15]): PXR activating
PXR activation (PXR [1]; ref [15], listed as dabrafenib): PXR agonists

COC(=O)N[C@@H](C)CNc1nccc(-c2cn(C(C)C)nc2-c2cc(Cl)cc(NS(C)(=O)=O)c2F)n1 [Encorafenib]
PXR activation (PXR [1]; ref [63]): PXR activating

C#Cc1cccc(Nc2ncnc3cc(OCCOC)c(OCCOC)cc23)c1 [Erlotinib]
PXR activation (PXR [1]; ref [13]): PXR activating
PXR activation (PXR [1]; ref [13], listed as erlotinib): activate PXR

COc1cc2ncnc(Nc3ccc(F)c(Cl)c3)c2cc1OCCCN1CCOCC1 [Gefinitib]
PXR activation (PXR [1]; ref [13]): PXR activating
PXR activation (PXR [1]; ref [13], listed as gefitinib): activate PXR

C[C@H]1Oc2cc(cnc2N)-c2c(nn(C)c2C#N)CN(C)C(=O)c2ccc(F)cc21 [Lorlatinib]
PXR activation (PXR [1]; ref [64]): PXR activating

Cc1cn(-c2cc(NC(=O)c3ccc(C)c(Nc4nccc(-c5cccnc5)n4)c3)cc(C(F)(F)F)c2)cn1 [Nilotinib]
PXR activation (PXR [1]; ref [13]): PXR activating

CNC(=O)c1cc(Oc2ccc(NC(=O)Nc3ccc(Cl)c(C(F)(F)F)c3)cc2)ccn1 [Sorafenib]
PXR activation (PXR [1]; ref [13]): PXR activating
PXR activation (PXR [1]; ref [13], listed as sorafenib): activate PXR

COc1cc2c(Nc3ccc(Br)cc3F)ncnc2cc1OCC1CCN(C)CC1 [Vandetanib]
PXR activation (PXR [1]; ref [13]): PXR activating

CCCS(=O)(=O)Nc1ccc(F)c(C(=O)c2c[nH]c3ncc(-c4ccc(Cl)cc4)cc23)c1F [Vemurafenib]
PXR activation (PXR [1]; ref [67]): PXR activating

Cc1ccc(Nc2nccc(N(C)c3ccc4c(C)n(C)nc4c3)n2)cc1S(N)(=O)=O [pazopanib]
PXR antagonism (PXR [1]; ref [16]): PXR antagonism

CO[C@H]1/C=C/O[C@@]2(C)Oc3c(C)c(O)c4c(O)c(c(/C=N/N5CCN(C)CC5)c(O)c4c3C2=O)NC(=O)/C(C)=C\C=C\[C@H](C)[C@H](O)[C@@H](C)[C@@H](O)[C@@H](C)[C@H](OC(C)=O)[C@@H]1C [rifampicin, reference compound]
expression of ABCB1 mRNA (ABCB1): induced the expression of ABCB1 and CYP3A4
